Holding throughout (assay): relative viability (nuclei count vs DMSO), 5 days (fraction); higher = more cells survive
Compound in assay [1]: C1COCCN1C2=NC(=NC3=C2OC4=C3C=CC=N4)C5=CC(=CC=C5)NC(=O)C6=CN=C(C=C6)N + CC1(C)CCC(c2ccc(Cl)cc2)=C(CN2CCN(c3ccc(C(=O)NS(=O)(=O)c4ccc(N[C@H](CCN5CCOCC5)CSc5ccccc5)c(S(=O)(=O)C(F)(F)F)c4)cc3)CC2)C1 [Navitoclax] (partner 0.5 µM)
A digest of the protocol:
(§1)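 For relative viability, nuclei counts in treated wells were divided by those in vehicle wells. Lung cancer cell lines had been pin-tool dosed in 1536-well plates the day after seeding and cultured for 5 days, then fixed and stained in one step (final 0.05% Triton X-100, 1% formaldehyde, 1 ug/ml Hoechst) and imaged at 4×. Doses were one drug alone or a fixed anchor-drug dose plus five library-drug doses (not always all listed) in √10 steps, and values are duplicate-plate medians.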

Compound in assay [2]: C1COCCN1C2=NC(=NC3=C2OC4=C3C=CC=N4)C5=CC(=CC=C5)NC(=O)C6=CN=C(C=C6)N + Cc1cc(Nc2cc(N3CCN(C)CC3)nc(Sc3ccc(NC(=O)C4CC4)cc3)n2)n[nH]1 [Tozasertib] (partner 0.1 µM)
Summed up: as §1

Compound in assay [3]: C1COCCN1C2=NC(=NC3=C2OC4=C3C=CC=N4)C5=CC(=CC=C5)NC(=O)C6=CN=C(C=C6)N + N=C(N)NC(=N)NCCc1ccccc1 [Phenformin] (partner 250 µM)
Summed up:
as §1

Compound in the assay “SGI-1776 + Pictilisib”: CN1CCC(CNc2ccc3ncc(-c4cccc(OC(F)(F)F)c4)n3n2)CC1 [SGI-1776] + CS(=O)(=O)N1CCN(Cc2cc3nc(-c4cccc5[nH]ncc45)nc(N4CCOCC4)c3s2)CC1 [Pictilisib] (partner 1 µM)
Summed up: as §1

Take UMC-11: the relative viability in assay [1] (first compound 0.02 µM) was 0.278; in assay [1] (first compound 0.06325 µM) it was 0.292; in assay [1] (first compound 0.2 µM) it was 0.266; in assay [1] (first compound 0.6325 µM), 0.284; in assay [1] (first compound 2 µM), 0.246; in assay [2] (first compound 0.02 µM), 0.205. The relative viability is 0.188 in assay [2] (first compound 0.06325 µM); 0.193 in assay [2] (first compound 0.2 µM); 0.182 in assay [2] (first compound 0.6325 µM); 0.177 in assay [2] (first compound 2 µM); 0.302 in assay [3] (first compound 0.02 µM); 0.327 in assay [3] (first compound 0.06325 µM). The relative viability in assay [3] (first compound 0.2 µM) was found to be 0.33; in assay [3] (first compound 0.6325 µM), 0.308; in assay [3] (first compound 2 µM) it was 0.204; in the assay with SGI-1776 + Pictilisib (first compound 0.08 µM), 0.791; with SGI-1776 + Pictilisib (first compound 0.8 µM), 0.987; with SGI-1776 + Pictilisib (first compound 2.53 µM), 0.812. The relative viability with SGI-1776 + Pictilisib (first compound 8 µM) was 0.498.

(Values after the supplement of paper PMC10307832.)
